Values of other authors in patent US6436417B1, “Acne treatment compositions” (Blistex Inc., priority 2001, dated 2002).

Tests used:
[1] = in sunlight and in the presence of ferric salts
[2] = not given; remark: listed apart in the source

O=C(O)c1ccccc1O [Salicylic acid, salicylic acid]
stability to discoloration [1]: strong tendency to discolor
solubility in alcohol (volume of alcohol dissolving 1 gram): about 2.7 ml
pH of the aqueous solution ([2]; 1 gram in about 460 ml of water at room temperature): 2.4
solubility in water (volume of water dissolving 1 gram) ([2]; 1 gram, water, room temperature): about 460 ml
solubility in water ([2]; water, room temperature): about 0.2 % by weight
